Patent US20050222267A1, “Solution based methacholine formulations” (priority 2004, published 2005)
Where two headings read alike, the source gives them in different places.

Experiments:
[1] = cited from earlier work
[2] = cited from earlier work; remark: listed apart in the source
[3] = Terminal steam sterilisation (Example 3): recovery (product potency); type: physicochemical; conditions: 20 L batches at 16 mg/ml and 0.25 mg/ml without buffer; conventional terminal steam sterilisation
Method: The influence of terminal steam sterilisation on the chemical properties of the methacholine drug product was determined, specifically in terms of the influence of heat on the product potency and impurity levels within the formulations.
[…] A formulation having a relatively high concentration of methacholine was used so that any changes in chemical properties were readily apparent.
The procedure described below was used for performing the high pressure liquid chromatography (HPLC) assay analysis of methacholine chloride in solution.

## CC(=O)OC(C)C[N+](C)(C)C (centres unmarked) [methacholine, methacholine chloride]
[1]; methacholine 0.39 mg/ml in saline
  pH of the saline solution: 3.9
[1]; methacholine 50 mg/ml in saline
  pH of the saline solution: 2.7
[2]; pH of the solution above 6
  decomposition by hydrolysis: rapidly decompose
[2]; solutions of >0.3 mg/ml, stored at 4° C.
  time stable in solution: at least five
[3]
  stability to terminal steam sterilisation: did not withstand the high temperatures
